# From PubChem BioAssay (NCI)
#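 GI50 is the concentration that inhibits growth by half. TGI marks complete inhibition of growth.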
# Assays:
# Test in all cases: NCI tumour cell line growth inhibition, 384-well format
# 786-0 renal = test system: 786-0 renal
# A498 renal = test system: A498 renal
# A549 NSCLC = test system: A549 NSCLC
# ACHN renal = test system: ACHN renal
# BT-549 breast = test system: BT-549 breast
# CAKI-1 renal = test system: CAKI-1 renal
# CCRF-CEM leukemia = test system: CCRF-CEM leukemia
# COLO 205 colon = test system: COLO 205 colon
# DU-145 prostate = test system: DU-145 prostate
# EKVX NSCLC = test system: EKVX NSCLC
# HCC-2998 colon = test system: HCC-2998 colon
# HCT-116 colon = test system: HCT-116 colon
# HCT-15 colon = test system: HCT-15 colon
# HL-60(TB) leukemia = test system: HL-60(TB) leukemia
# HOP-62 NSCLC = test system: HOP-62 NSCLC
# HOP-92 NSCLC = test system: HOP-92 NSCLC
# HS 578T breast = test system: HS 578T breast
# HT29 colon = test system: HT29 colon
# IGROV1 ovarian = test system: IGROV1 ovarian
# K-562 leukemia = test system: K-562 leukemia
# KM12 colon = test system: KM12 colon
# LOX IMVI melanoma = test system: LOX IMVI melanoma
# M14 melanoma = test system: M14 melanoma
# MALME-3M melanoma = test system: MALME-3M melanoma
# MCF7 breast = test system: MCF7 breast
# MDA-MB-435 melanoma = test system: MDA-MB-435 melanoma
# MDA-MB-468 breast = test system: MDA-MB-468 breast
# MOLT-4 leukemia = test system: MOLT-4 leukemia
# NCI-H226 lung = test system: NCI-H226 lung
# NCI-H23 lung = test system: NCI-H23 lung
# NCI-H322M lung = test system: NCI-H322M lung
# NCI-H460 NSCLC = test system: NCI-H460 NSCLC
# NCI-H522 lung = test system: NCI-H522 lung
# NCI/ADR-RES ovarian = test system: NCI/ADR-RES ovarian
# OVCAR-3 ovarian = test system: OVCAR-3 ovarian
# OVCAR-4 ovarian = test system: OVCAR-4 ovarian
# OVCAR-8 ovarian = test system: OVCAR-8 ovarian
# PC-3 prostate = test system: PC-3 prostate
# RPMI-8226 leukemia = test system: RPMI-8226 leukemia
# RXF 393 renal = test system: RXF 393 renal
# SF-268 CNS = test system: SF-268 CNS
# SF-295 CNS = test system: SF-295 CNS
# SF-539 CNS = test system: SF-539 CNS
# SK-MEL-2 melanoma = test system: SK-MEL-2 melanoma
# SK-MEL-28 melanoma = test system: SK-MEL-28 melanoma
# SK-MEL-5 melanoma = test system: SK-MEL-5 melanoma
# SK-OV-3 ovarian = test system: SK-OV-3 ovarian
# SN12C renal = test system: SN12C renal
# SNB-19 CNS = test system: SNB-19 CNS
# SNB-75 CNS = test system: SNB-75 CNS
# SW-620 colon = test system: SW-620 colon
# TK-10 renal = test system: TK-10 renal
# U251 glioblastoma = test system: U251 glioblastoma
# UACC-257 melanoma = test system: UACC-257 melanoma
# UACC-62 melanoma = test system: UACC-62 melanoma
smiles,measurement,setting,value
O=C(Nc1cccc(Br)c1)Oc1cccc2cccnc12,GI50,786-0 renal,16.3 µM
same,TGI,786-0 renal,33.9 µM
same,GI50,A498 renal,12.9 µM
same,TGI,A498 renal,26.3 µM
same,GI50,A549 NSCLC,13.8 µM
same,TGI,A549 NSCLC,32.8 µM
same,GI50,ACHN renal,6.26 µM
same,TGI,ACHN renal,27.1 µM
same,GI50,BT-549 breast,6.95 µM
same,TGI,BT-549 breast,22 µM
same,GI50,CAKI-1 renal,2.35 µM
same,TGI,CAKI-1 renal,4.98 µM
same,GI50,CCRF-CEM leukemia,1.94 µM
same,TGI,CCRF-CEM leukemia,3.43 µM
same,GI50,COLO 205 colon,2.61 µM
same,TGI,COLO 205 colon,4.87 µM
same,GI50,DU-145 prostate,8.98 µM
same,TGI,DU-145 prostate,36.7 µM
same,GI50,EKVX NSCLC,2.39 µM
same,TGI,EKVX NSCLC,4.96 µM
same,GI50,HCC-2998 colon,16.2 µM
same,TGI,HCC-2998 colon,30.1 µM
same,GI50,HCT-116 colon,2.4 µM
same,TGI,HCT-116 colon,4.37 µM
same,GI50,HCT-15 colon,3.4 µM
same,TGI,HCT-15 colon,9.07 µM
same,GI50,HL-60(TB) leukemia,1.73 µM
same,TGI,HL-60(TB) leukemia,3.11 µM
same,GI50,HOP-62 NSCLC,7.61 µM
same,TGI,HOP-62 NSCLC,18.8 µM
same,GI50,HOP-92 NSCLC,4.02 µM
same,TGI,HOP-92 NSCLC,10.5 µM
same,GI50,HS 578T breast,16.7 µM
same,TGI,HS 578T breast,39.8 µM
same,GI50,HT29 colon,8.98 µM
same,TGI,HT29 colon,21.2 µM
same,GI50,IGROV1 ovarian,2.23 µM
same,TGI,IGROV1 ovarian,4.46 µM
same,GI50,K-562 leukemia,23.5 µM
same,TGI,K-562 leukemia,50.3 µM
same,GI50,KM12 colon,5.99 µM
same,TGI,KM12 colon,18.1 µM
same,GI50,LOX IMVI melanoma,2.95 µM
same,TGI,LOX IMVI melanoma,10.8 µM
same,GI50,M14 melanoma,2.78 µM
same,TGI,M14 melanoma,6.06 µM
same,GI50,MALME-3M melanoma,4.16 µM
same,TGI,MALME-3M melanoma,13.1 µM
same,GI50,MCF7 breast,2.23 µM
same,TGI,MCF7 breast,4.47 µM
same,GI50,MDA-MB-435 melanoma,12.6 µM
same,TGI,MDA-MB-435 melanoma,30.4 µM
same,GI50,MDA-MB-468 breast,2.82 µM
same,TGI,MDA-MB-468 breast,4.48 µM
same,GI50,MOLT-4 leukemia,1.99 µM
same,TGI,MOLT-4 leukemia,3.47 µM
same,GI50,NCI-H226 lung,1.74 µM
same,TGI,NCI-H226 lung,3.42 µM
same,GI50,NCI-H23 lung,2.01 µM
same,TGI,NCI-H23 lung,3.73 µM
same,GI50,NCI-H322M lung,17.5 µM
same,TGI,NCI-H322M lung,43 µM
same,GI50,NCI-H460 NSCLC,2.76 µM
same,TGI,NCI-H460 NSCLC,6.44 µM
same,GI50,NCI-H522 lung,2.18 µM
same,TGI,NCI-H522 lung,4.32 µM
same,GI50,NCI/ADR-RES ovarian,2.43 µM
same,TGI,NCI/ADR-RES ovarian,4.56 µM
same,GI50,OVCAR-3 ovarian,2.12 µM
same,TGI,OVCAR-3 ovarian,3.92 µM
same,GI50,OVCAR-4 ovarian,4.82 µM
same,TGI,OVCAR-4 ovarian,14.9 µM
same,GI50,OVCAR-8 ovarian,2.56 µM
same,TGI,OVCAR-8 ovarian,5.3 µM
same,GI50,PC-3 prostate,2.79 µM
same,TGI,PC-3 prostate,5.48 µM
same,GI50,RPMI-8226 leukemia,2.26 µM
same,TGI,RPMI-8226 leukemia,3.75 µM
same,GI50,RXF 393 renal,3.5 µM
same,TGI,RXF 393 renal,7.85 µM
same,GI50,SF-268 CNS,3.69 µM
same,TGI,SF-268 CNS,9.11 µM
same,GI50,SF-295 CNS,7.95 µM
same,TGI,SF-295 CNS,23.6 µM
same,GI50,SF-539 CNS,5.79 µM
same,TGI,SF-539 CNS,17.1 µM
same,GI50,SK-MEL-2 melanoma,2.8 µM
same,TGI,SK-MEL-2 melanoma,5.41 µM
same,GI50,SK-MEL-28 melanoma,4.56 µM
same,TGI,SK-MEL-28 melanoma,15.1 µM
same,GI50,SK-MEL-5 melanoma,5.81 µM
same,TGI,SK-MEL-5 melanoma,17.9 µM
same,GI50,SK-OV-3 ovarian,17.9 µM
same,TGI,SK-OV-3 ovarian,34.3 µM
same,GI50,SN12C renal,4.46 µM
same,TGI,SN12C renal,15.4 µM
same,GI50,SNB-19 CNS,9.79 µM
same,TGI,SNB-19 CNS,38.3 µM
same,GI50,SNB-75 CNS,4.08 µM
same,TGI,SNB-75 CNS,12.9 µM
same,GI50,SW-620 colon,6.19 µM
same,TGI,SW-620 colon,36.7 µM
same,GI50,TK-10 renal,6.51 µM
same,TGI,TK-10 renal,33.5 µM
same,GI50,U251 glioblastoma,5.89 µM
same,TGI,U251 glioblastoma,17.4 µM
same,GI50,UACC-257 melanoma,2.28 µM
same,TGI,UACC-257 melanoma,4.16 µM
same,GI50,UACC-62 melanoma,3.74 µM
same,TGI,UACC-62 melanoma,9.42 µM
